Results: patent US20120196899A1, “METHODS AND PRODUCTS FOR TREATING INFLAMMATION” (Rock Creek Pharmaceuticals, Inc., priority 2010, published 2012)
Read-outs that look alike come from different tables or passages of the source.

Experiment: Plasma toxicokinetics after single i.v. bolus
Type: in vivo, Sprague-Dawley rats
Conditions: for concentration at 4 h / concentration at 6 h / concentration at 1 h / concentration at 2 h / concentration at 8 h / concentration at 0.5 h / half-life: Sprague-Dawley, rat, plasma; for concentration at 4 h / concentration at 6 h / concentration at 1 h / concentration at 2 h / concentration at 8 h / concentration at 0.5 h: intravenous; for half-life: iv
Experimental: Six rats (3 males and 3 females) were dosed per dose group. […] Plasma and brain homogenates were stored at −80° C. until analysis.
An additional 48 rats (24 males and 24 females) received a single intravenous dose via the tail vein at the same doses as mentioned above. At 30 and 360 minutes post administration, 6 rats (3 males and 3 females) per dose group, per time point were euthanized, bled via cardiac puncture, and perfused, and brains were collected. The brains were homogenized. Blood was spun, and plasma was collected. Plasma and brain homogenate were stored at −80° C.
Four aliquots of each dose level formulation were collected and stored at −80° C. The test compound, corresponding dose level, number of animals, and sample collection times for Phase I of the study are shown in Table 3. The test compound, corresponding dose level, number of animals, and sample collection times for Phase II of the study are shown in Table 4. The physical signs of each animal were monitored following administration of the test compound.
The animals were weighed prior to dosing and received a single i.v. dose of either test compound at a volume of 5 mL/kg. Blood was collected via the venus plexus (retro-orbital) into tubes containing (K2) EDTA. No more than 0.5 mL was collected per time point. […] The brain was removed, weighed, homogenized in sterile 0.9% saline at a volume equal to its weight, and stored at −80° C.
Plasma was separated according to the instructions for MICROTAINER® brand collection tubes (3 minutes, 2000×g). Plasma was decanted into microfuge tubes and stored at −80° C. Remaining test compound was stored at −80° C.
The signal was optimized for each compound by electrospray ionization (ESI) positive or negative ionization mode. A single ion mode (SIM) scan was used to optimize the Fragmentor for the precursor ion and a product ion analysis was used to identify the best fragment for analysis and to optimize the collision energy. The fragment which gave the most sensitive and specific signal was chosen.
Sample preparation. […] The amount of the test agent in the supernatant was determined by liquid chromatography tandem mass spectrometry (LC/MS/MS).
Analysis. Samples were analyzed by LC/MS/MS using an Agilent 6410 mass spectrometer coupled with an Agilent 1200 high pressure liquid chromatography (HPLC) and a CTC PAL chilled autosampler, all controlled by MassHunter software (Agilent). After separation on a hydrophilic interaction liquid chromatography (HILIC) HPLC column (Sepax) using an acetonitrile-ammonium acetate/acetic acid gradient system, peaks were analyzed by mass spectrometry (MS) using ESI ionization in multiple reaction monitoring (MRM) mode. MassHunter software was used to calculate the concentration of the test compounds in samples from the peak area using the appropriate calibration curves.
Calibration samples. Calibration curves were determined for both rat plasma and brain homogenate. Calibration samples were prepared by diluting a 50× stock solution of the test compound in PBS with blank matrix to the appropriate concentration and these samples were prepared as described above in the sample preparation.

[1] = 0.75 mg/kg, Concentration of anatabine in rat plasma, Anatabine 0.75 mg/kg, rat plasma, rats of group 3
[2] = 0.75 mg/kg, Concentration of anatabine in rat plasma, Anatabine 0.75 mg/kg, rat plasma, rats of group 4
[3] = 1 mg/kg, Concentration of anatabine in rat plasma, Anatabine 1.0 mg/kg, rat plasma, rats of group 5
[4] = 1 mg/kg, Concentration of anatabine in rat plasma, Anatabine 1.0 mg/kg, rat plasma, rats of group 6
[5] = both sexes, 0.1 mg/kg, Anatabine 0.1 mg/kg, male and female, read-out: Avg. Conc. rat plasma, combined male and female
[6] = both sexes, 0.1 mg/kg, Concentration of anatabine in rat plasma, Anatabine 0.1 mg/kg, Rat Plasma, individual rats
[7] = both sexes, 0.75 mg/kg, Anatabine 0.75 mg/kg, male and female, read-out: Avg. Conc. rat plasma, combined male and female
[8] = both sexes, 1 mg/kg, Anatabine 1.0 mg/kg, male and female, read-out: Avg. Conc. rat plasma, combined male and female

For `C1=CCC(c2cccnc2)NC1` (racemic) [Anatabine, 1,2,3,6-tetrahydro-[2,3′]bipyridinyl], the “Avg. Conc. rat plasma” value (Anatabine 0.1 mg/kg, female, 8 hr) was “<LLQ”, the “Avg. Conc. rat plasma” value (Anatabine 0.1 mg/kg, female, 24 hr) was “<LLQ” and the “Avg. Conc. rat plasma, combined male and female” value (Anatabine 0.1 mg/kg, male and female, 8 hr) was “<LLQ”. The “Avg. Conc. rat plasma, combined male and female” value (Anatabine 0.1 mg/kg, male and female, 24 hr) was “<LLQ”, the “Avg. Conc. rat plasma” value (Anatabine 0.1 mg/kg, male, 6 hr (1st 6 hr line)) was “<LLQ” and the “Avg. Conc. rat plasma” value (Anatabine 0.1 mg/kg, male, 8 hr) was “<LLQ”. The “Avg. Conc. rat plasma” value (Anatabine 0.1 mg/kg, male, 24 hr) was “<LLQ”, the “Avg. Conc. rat plasma” value (Anatabine 0.75 mg/kg, female, 24 hr) was “<LLQ” and the “Avg. Conc. rat plasma, combined male and female” value (Anatabine 0.75 mg/kg, male and female, 24 hr) was “<LLQ”. The “Avg. Conc. rat plasma” value (Anatabine 0.75 mg/kg, male, 24 hr) was “<LLQ”, the “Avg. Conc. rat plasma” value (Anatabine 1.0 mg/kg, female, 24 hr) was “<LLQ” and the “Avg. Conc. rat plasma, combined male and female” value (Anatabine 1.0 mg/kg, male and female, 24 hr) was “<LLQ”. For the same molecule, the “Avg. Conc. rat plasma” value (Anatabine 1.0 mg/kg, male, 24 hr) was “<LLQ”, the concentration at 4 h (0.1 mg/kg, Concentration of anatabine in rat plasma, Anatabine 0.1 mg/kg, Rat Plasma, individual rats) was 3 ng/mL and the concentration at 6 h (0.1 mg/kg, Concentration of anatabine in rat plasma, Anatabine 0.1 mg/kg, rat plasma, 6 hr, rats 2A-2C) was 3 ng/mL. It also gave a concentration at 1 h [1] of 153 ng/mL, a concentration at 1 h [2] of 146 ng/mL and a concentration at 2 h [1] of 73 ng/mL. The concentration at 2 h [2] was 89 ng/mL, the concentration at 4 h [1] was 29 ng/mL and the concentration at 4 h [2] was 45 ng/mL. For the same molecule, the concentration at 8 h (0.75 mg/kg, Concentration of anatabine in rat plasma, Anatabine 0.75 mg/kg, rat plasma, 8 hr, rats of group 3) was 8 ng/mL, the concentration at 8 h (0.75 mg/kg, Concentration of anatabine in rat plasma, Anatabine 0.75 mg/kg, rat plasma, 8 hr, rats of group 4) was 10 ng/mL and the concentration at 0.5 h (1 mg/kg, Concentration of anatabine in rat plasma, Anatabine 1.0 mg/kg, rat plasma, 0.5 hr, rats of group 5) was 288 ng/mL. It also gave a concentration at 0.5 h (1 mg/kg, Concentration of anatabine in rat plasma, Anatabine 1.0 mg/kg, rat plasma, 0.5 hr, rats of group 6) of 222 ng/mL, a concentration at 1 h [3] of 257 ng/mL and a concentration at 1 h [4] of 218 ng/mL. The concentration at 2 h [3] was 121 ng/mL, the concentration at 2 h [4] was 147 ng/mL and the concentration at 4 h [3] was 36 ng/mL. For the same molecule, the concentration at 4 h [4] was 73 ng/mL, the concentration at 6 h (1 mg/kg, Concentration of anatabine in rat plasma, Anatabine 1.0 mg/kg, rat plasma, 6 hr, rats of group 6) was 33 ng/mL and the concentration at 8 h (1 mg/kg, Concentration of anatabine in rat plasma, Anatabine 1.0 mg/kg, rat plasma, 8 hr, rats of group 5) was 8 ng/mL. It also gave a concentration at 8 h (1 mg/kg, Concentration of anatabine in rat plasma, Anatabine 1.0 mg/kg, rat plasma, 8 hr, rats of group 6) of 19 ng/mL, a t1/2 (anatabine 0.1 mg/kg single i.v., female rats) of 1.64 ± 0.59 h and a t1/2 (anatabine 0.75 mg/kg single i.v., male rats) of 1.64 ± 0.12 h. It also gave a t1/2 (anatabine 0.75 mg/kg single i.v., rat plasma, M + F) of 1.68 ± 0.09 h, a t1/2 (anatabine 1.0 mg/kg single i.v., rat plasma, M + F) of 1.64 ± 0.25 h and a concentration at 0.5 h (both sexes, 0.1 mg/kg, Anatabine 0.1 mg/kg, male and female, 0.5 hr (1st 0.5 hr line), n=12, read-out: Avg. Conc. rat plasma, combined male and female) of 22.9 ng/mL. The concentration at 1 h [5] was 8 ng/mL, the concentration at 2 h [5] was 8.7 ng/mL and the concentration at 4 h [5] was 5.2 ng/mL. It also gave a concentration at 6 h (both sexes, 0.1 mg/kg, Anatabine 0.1 mg/kg, male and female, 6 hr (1st 6 hr line), n=6, read-out: Avg. Conc. rat plasma, combined male and female) of 4.3 ng/mL, a concentration at 6 h (both sexes, 0.1 mg/kg, Anatabine 0.1 mg/kg, male and female, 6 hr (2nd 6 hr line), n=4, read-out: Avg. Conc. rat plasma, combined male and female) of 4.5 ng/mL and a concentration at 1 h [6] of 10 ng/mL. For the same molecule, the concentration at 2 h [6] was 6 ng/mL, the concentration at 0.5 h (both sexes, 0.75 mg/kg, Anatabine 0.75 mg/kg, male and female, 0.5 hr (1st 0.5 hr line), n=12, read-out: Avg. Conc. rat plasma, combined male and female) was 257 ng/mL and the concentration at 0.5 h (both sexes, 0.75 mg/kg, Anatabine 0.75 mg/kg, male and female, 0.5 hr (2nd 0.5 hr line), n=6, read-out: Avg. Conc. rat plasma, combined male and female) was 328 ng/mL. For the same molecule, the concentration at 1 h [7] was 162 ng/mL, the concentration at 2 h [7] was 91.7 ng/mL and the concentration at 4 h [7] was 40 ng/mL. The concentration at 6 h (both sexes, 0.75 mg/kg, Anatabine 0.75 mg/kg, male and female, 6 hr (1st 6 hr line), n=12, read-out: Avg. Conc. rat plasma, combined male and female) was 19.3 ng/mL, the concentration at 6 h (both sexes, 0.75 mg/kg, Anatabine 0.75 mg/kg, male and female, 6 hr (2nd 6 hr line), n=6, read-out: Avg. Conc. rat plasma, combined male and female) was 22.5 ng/mL and the concentration at 8 h (both sexes, 0.75 mg/kg, Anatabine 0.75 mg/kg, male and female, 8 hr, read-out: Avg. Conc. rat plasma, combined male and female) was 10 ng/mL. The concentration at 0.5 h (both sexes, 1 mg/kg, Anatabine 1.0 mg/kg, male and female, 0.5 hr (1st 0.5 hr line), n=12, read-out: Avg. Conc. rat plasma, combined male and female) was 319 ng/mL, the concentration at 0.5 h (both sexes, 1 mg/kg, Anatabine 1.0 mg/kg, male and female, 0.5 hr (2nd 0.5 hr line), n=6, read-out: Avg. Conc. rat plasma, combined male and female) was 384 ng/mL and the concentration at 1 h [8] was 231 ng/mL. It also gave a concentration at 2 h [8] of 143 ng/mL, a concentration at 4 h [8] of 51.5 ng/mL and a concentration at 6 h (both sexes, 1 mg/kg, Anatabine 1.0 mg/kg, male and female, 6 hr (1st 6 hr line), n=12, read-out: Avg. Conc. rat plasma, combined male and female) of 24.3 ng/mL. For the same molecule, the concentration at 6 h (both sexes, 1 mg/kg, Anatabine 1.0 mg/kg, male and female, 6 hr (2nd 6 hr line), n=6, read-out: Avg. Conc. rat plasma, combined male and female) was 25 ng/mL, the concentration at 8 h (both sexes, 1 mg/kg, Anatabine 1.0 mg/kg, male and female, 8 hr, read-out: Avg. Conc. rat plasma, combined male and female) was 12.7 ng/mL and the half-life (both sexes, 0.1 mg/kg, anatabine 0.1 mg/kg single i.v., rat plasma, M + F, read-out: t1/2 (converted)) was 1.44 ± 0.48 h. The half-life (both sexes, elimination half-life (t1/2), range over the anatabine treatment groups, anatabine 0.1-1.0 mg/kg single i.v., rats M + F) was 1.64 to 1.68 h and the concentration at 0.5 h (female, 0.1 mg/kg, Anatabine 0.1 mg/kg, female, 0.5 hr (1st 0.5 hr line), read-out: Avg. Conc. rat plasma) was 13 ng/mL.
